Measured values published in patent US8088746B2, “Bis-modified bicyclic nucleic acid analogs” (Isis Pharmaceuticals, Inc., priority 2006, dated 2012).
Strand notation (5' to 3'): a small letter for the sugar, then the base; units joined by * are phosphorothioate-linked, units joined directly phosphodiester-linked; [ ] holds rarer units or linkages, { } end groups; capitals alone tell only the bases. [cMOE-R-N] = 6-(R)-CH2-O-CH3 BNA nucleoside (4'-CH(CH2OCH3)-O-2' bridge, R configuration) (N: the base); [6'R-Me-BNA] = 6-(R)-CH3 bicyclic nucleoside (R-constrained ethyl); [5'S-Me-BNA] = 5'-(S)-CH3 4'-CH2-O-2' bicyclic nucleoside; [6'S-cMOE] = 6-(S)-CH2-O-CH3 bicyclic nucleoside; e = 2'-O-(2-methoxyethyl) (MOE); l = locked nucleic acid (LNA); k = constrained ethyl (cEt); v = modified nucleoside v; [5mC] = 5-methylcytosine; d = 2'-deoxy (DNA)

Tests used:
PTEN [1] = assay: 2-14-2 gapped oligomers targeted to PTEN (Example 50), in vivo single injection, liver mRNA; conditions: 72 hrs
PTEN [2] = assay: 5′-vinyl and LNA gapped oligomers targeted to PTEN (Example 51), in vivo single injection, liver mRNA; conditions: 64 hrs; for PTEN % UTC: 18 mers, liver mRNA; for ED50: PTEN liver mRNA
RNA complement = assay: Tm by melting against RNA complement (Example 51); conditions: 18 mers, melting against the RNA 20 mer (131566), 14 base complementary region
PTEN [3] = assay: 2-14-2 gapped oligomers targeted to PTEN (Example 42), in vivo single injection, liver mRNA; conditions: for % UTC: liver mRNA, 72 hrs
[4] = injected once 60 mg/kg (last dose column)
[5] = injected once, second dose column, printed 60 mg/kg

ISIS NO. 400525: CSUSGCTAGCCTCTGGATUSUS; 6-(S)-CH2-O-CH3 BNA 2-14-2 gapped oligomer targeted to PTEN (CUGCTAGCCTCTGGATUU; sugars from the 5' end [6'S-cMOE]2 d14 [6'S-cMOE]2, backbone and methylation of C not given here)
% UTC (PTEN [1]; injected once 2 μmol/kg): 21% | % UTC (PTEN [1]; injected once 10 μmol/kg): 3%

ISIS NO. 411027: CvUvGCTAGCCTCTGGATUvUv; 18 mer gapped oligomer targeted to PTEN, subscript v nucleoside illustrated in a drawing (CUGCTAGCCTCTGGATUU; sugars from the 5' end v2 d14 v2, backbone and methylation of C not given here; further chemistry not fully specified)
PTEN % UTC (PTEN [2]; injected once 1.9 mg/kg): 89% | PTEN % UTC (PTEN [2]; injected once 19 mg/kg): 24% | PTEN % UTC (PTEN [2]; [4]): 7% | PTEN % UTC (PTEN [2]; [5]): 61% | ED50 (PTEN [2]; injected once): 7.4 mg/kg | Tm (RNA complement): 59.9 °C

ISIS NO. 394425: MeClTlGCTAGCCTCTGGATTlTl; 4′-CH2-O-2′ BNA 2-14-2 gapped oligomer targeted to PTEN (CTGCTAGCCTCTGGATTT; sugars from the 5' end l2 d14 l2, [5mC] at 1, backbone not given here) [reference compound]
PTEN % UTC (PTEN [2]; injected once 1.9 mg/kg): 100% | PTEN % UTC (PTEN [2]; injected once 19 mg/kg): 8% | PTEN % UTC (PTEN [2]; [4]): 4% | PTEN % UTC (PTEN [2]; [5]): 35% | ED50 (PTEN [2]; injected once): 4.4 mg/kg | % UTC (PTEN [3]; injected once 2 μmol/kg): 11% | % UTC (PTEN [3]; injected once 10 μmol/kg): 2.1% | Tm (RNA complement): 61.6 °C

ISIS NO. 400521: CSUSGCTAGCCTCTGGATUSUS; 5′-(S)-CH3 BNA 2-14-2 gapped oligomer targeted to PTEN (CUGCTAGCCTCTGGATUU; sugars from the 5' end [5'S-Me-BNA]2 d14 [5'S-Me-BNA]2, backbone and methylation of C not given here)
efficacy, comparison in words (PTEN [3]; high dose group (10 micromole/Kg)): essentially equally efficacious as 394425 | % UTC (PTEN [3]; injected once 2 μmol/kg): 21.4% | % UTC (PTEN [3]; injected once 10 μmol/kg): 3.8%

ISIS NO. 400523: CSUSGCTAGCCTCTGGATUSUS; 6-(S)-CH3 BNA 2-14-2 gapped oligomer targeted to PTEN (CUGCTAGCCTCTGGATUU; sugars from the 5' end k2 d14 k2, backbone and methylation of C not given here)
% UTC (PTEN [1]; injected once 2 μmol/kg): 17% | % UTC (PTEN [1]; injected once 10 μmol/kg): 4%

ISIS NO. 400522: CRURGCTAGCCTCTGGATURUR; 6-(R)-CH3 BNA 2-14-2 gapped oligomer targeted to PTEN (CUGCTAGCCTCTGGATUU; sugars from the 5' end [6'R-Me-BNA]2 d14 [6'R-Me-BNA]2, backbone and methylation of C not given here)
% UTC (PTEN [1]; injected once 2 μmol/kg): 18% | % UTC (PTEN [1]; injected once 10 μmol/kg): 4%

ISIS NO. 400524: CRURGCTAGCCTCTGGATURUR; 6-(R)-CH2-O-CH3 BNA 2-14-2 gapped oligomer targeted to PTEN ([cMOE-R-C]*[cMOE-R-U]*dG*dC*dT*dA*dG*dC*dC*dT*dC*dT*dG*dG*dA*dT*[cMOE-R-U]*[cMOE-R-U]; antisense)
% UTC (PTEN [1]; injected once 2 μmol/kg): 23% | % UTC (PTEN [1]; injected once 10 μmol/kg): 4%

ISIS NO. 394420: MeCeTeGCTAGCCTCTGGATTeTe; 2′-O-MOE 2-14-2 gapped oligomer targeted to PTEN (CTGCTAGCCTCTGGATTT; sugars from the 5' end e2 d14 e2, [5mC] at 1, backbone not given here) [reference compound]
% UTC (PTEN [3]; injected once 2 μmol/kg): 79% | % UTC (PTEN [3]; injected once 10 μmol/kg): 26% | % UTC (PTEN [1]; injected once 2 μmol/kg): 79% | % UTC (PTEN [1]; injected once 10 μmol/kg): 26%
